Target: Human thrombin (Homo sapiens (Human), UniProt P00734)
Assay: Thrombin protease activity inhibition assay (chromogenic substrate S-2238)
Type: biochemical
Conditions: 3 nM thrombin, 125 μM S-2238, 10 min pre-incubation, RT
Description: The thrombin activity reported herein (e.g., Table A) was obtained as follows. […] Thrombin was assayed in buffer containing 0.05 M Tris (pH 7.4), 0.015 M NaCl and 0.01% PEG-8000. The final concentration of enzyme used was 3 nM thrombin. […] All assays were performed in 96-well microtiter plates at room temperature (RT). […] Inhibitor IC50 values were determined by adding test compound as ten point, three-fold serial dilutions in buffer solution, as known in the art. The plate was read at 10 minutes after substrate addition. The IC50 was calculated by plotting the percent (%) inhibition against compound concentration and fitting the data to a constrained four parameter sigmoidal curve, as known in the art.

Row | Structure (SMILES) | IC50 [nM]
1 | O=C(c1ccoc1)n1nc(-c2cccn(Cc3cccnc3)c2=O)cc1NCc1ccc(Cl)s1 [Cmpd 177, 3-(5-[(5-chlorothiophen-2-yl)methyl]amino-1-[(furan-3-yl)carbonyl]-1H-pyrazol-3-yl)-1-(pyridin-3-ylmethyl)-1,2-dihydropyridin-2-one] | < 100
2 | CC(C)(C)C(=O)n1nc(-c2cccn(CC#N)c2=O)cc1NCc1ccc(Cl)s1 [Cmpd 56, 2-[3-(5-[(5-chlorothiophen-2-yl)methyl]amino-1-(2,2-dimethylpropanoyl)-1H-pyrazol-3-yl)-2-oxo-1,2-dihydropyridin-1-yl]acetonitrile] | < 100
3 | O=c1c(-c2cc(NCc3ccc(Cl)s3)n[nH]2)cccn1Cc1cccnc1 [Cmpd 228, 3-(5-[(5-chlorothiophen-2-yl)methyl]amino-1H-pyrazol-3-yl)-1-(pyridin-3-ylmethyl)-1,2-dihydropyridin-2-one] | 1000 to 10000
4 | O=C(c1ccoc1)n1nc(-c2cccn(CCN3CCOCC3)c2=O)cc1NCc1ccc(Cl)s1 [Cmpd 181, 3-(5-[(5-chlorothiophen-2-yl)methyl]amino-1-[(furan-3-yl)carbonyl]-1H-pyrazol-3-yl)-1-[2-(morpholin-4-yl)ethyl]-1,2-dihydropyridin-2-one] | < 100
5 | O=C(c1ccccc1)n1nc(-c2ccc[nH]c2=O)cc1NCc1ccc(Cl)s1 [Cmpd 61, 3-(1-benzoyl-5-[(5-chlorothiophen-2-yl)methyl]amino-1H-pyrazol-3-yl)-1,2-dihydropyridin-2-one] | < 100
6 | COc1ccc(C(=O)n2nc(-c3cccn(Cc4ncccn4)c3=O)cc2NCc2ccc(Cl)s2)c(OC)c1 [Cmpd 128, 3-(5-[(5-chlorothiophen-2-yl)methyl]amino-1-[(2,4-dimethoxyphenyl)carbonyl]-1H-pyrazol-3-yl)-1-(pyrimidin-2-ylmethyl)-1,2-dihydropyridin-2-one] | > 100000
7 | CC1(C(=O)n2nc(-c3cccn(Cc4ccccn4)c3=O)cc2NCc2ccc(Cl)s2)CCOCC1 [Cmpd 153, 3-(5-[(5-chlorothiophen-2-yl)methyl]amino-1-[(4-methyloxan-4-yl)carbonyl]-1H-pyrazol-3-yl)-1-(pyridin-2-ylmethyl)-1,2-dihydropyridin-2-one] | < 100
8 | O=C(Cn1cccc(-c2cc(NCc3ccc(Cl)s3)n(C(=O)c3ccoc3)n2)c1=O)N1CCOCC1 [Cmpd 180, 3-(5-[(5-chlorothiophen-2-yl)methyl]amino-1-[(furan-3-yl)carbonyl]-1H-pyrazol-3-yl)-1-[2-(morpholin-4-yl)-2-oxoethyl]-1,2-dihydropyridin-2-one] | < 100
9 | CC(C)(C)C(=O)n1nc(-c2cccn(Cc3ccsc3)c2=O)cc1NCc1ccc(Cl)s1 [Cmpd 87, 3-(5-[(5-chlorothiophen-2-yl)methyl]amino-1-(2,2-dimethylpropanoyl)-1H-pyrazol-3-yl)-1-(thiophen-3-ylmethyl)-1,2-dihydropyridin-2-one] | < 100
10 | CN(C)c1cc(-c2cccn(Cc3ccccn3)c2=O)nn1C(=O)c1ccco1 [Cmpd 240, 3-[5-(dimethylamino)-1-[(furan-2-yl)carbonyl]-1H-pyrazol-3-yl]-1-(pyridin-2-ylmethyl)-1,2-dihydropyridin-2-one] | > 100000
11 | O=C(c1ccc(N2CCOCC2)cc1)n1nc(-c2cccn(Cc3cccs3)c2=O)cc1NCc1ccc(Cl)s1 [Cmpd 216, 3-(5-[(5-chlorothiophen-2-yl)methyl]amino-1-[4-(morpholin-4-yl)phenyl]carbonyl-1H-pyrazol-3-yl)-1-(thiophen-2-ylmethyl)-1,2-dihydropyridin-2-one] | < 100
12 | CC1(C(=O)n2nc(-c3cccn(Cc4ccsc4)c3=O)cc2NCc2ccc(Cl)s2)CCOCC1 [Cmpd 158, 3-(5-[(5-chlorothiophen-2-yl)methyl]amino-1-[(4-methyloxan-4-yl)carbonyl]-1H-pyrazol-3-yl)-1-(thiophen-3-ylmethyl)-1,2-dihydropyridin-2-one] | < 100
13 | CC1(C(=O)n2nc(-c3cccn(Cc4cccnc4)c3=O)cc2NCc2ccc(Cl)s2)CCOCC1 [Cmpd 154, 3-(5-[(5-chlorothiophen-2-yl)methyl]amino-1-[(4-methyloxan-4-yl)carbonyl]-1H-pyrazol-3-yl)-1-(pyridin-3-ylmethyl)-1,2-dihydropyridin-2-one] | < 100
14 | CC(C)(C)OC(=O)Cn1cccc(-c2cc(NCc3ccc(Cl)s3)n(C(=O)c3ccoc3)n2)c1=O [Cmpd 263, tert-butyl 2-[3-(5-[(5-chlorothiophen-2-yl)methyl]amino-1-[(furan-3-yl)carbonyl]-1H-pyrazol-3-yl)-2-oxo-1,2-dihydropyridin-1-yl]acetate] | < 100
15 | O=C(c1ccsc1)n1nc(-c2ccc[nH]c2=O)cc1NCc1ccc(Cl)s1 [Cmpd 193, 3-(5-[(5-chlorothiophen-2-yl)methyl]amino-1-[(thiophen-3-yl)carbonyl]-1H-pyrazol-3-yl)-1,2-dihydropyridin-2-one] | < 100
16 | CC(C)(C)C(=O)n1nc(-c2cccn(Cc3cccc(Cl)c3)c2=O)cc1NCc1ccc(Cl)s1 [Cmpd 31, 1-[(3-chlorophenyl)methyl]-3-(5-[(5-chlorothiophen-2-yl)methyl]amino-1-(2,2-dimethylpropanoyl)-1H-pyrazol-3-yl)-1,2-dihydropyridin-2-one] | < 100
17 | CCOC(=O)Cn1cccc(-c2cc(NCc3ccc(Cl)s3)n(C(=O)C(C)(C)C)n2)c1=O [Cmpd 257, ethyl 2-[3-(5-[(5-chlorothiophen-2-yl)methyl]amino-1-(2,2-dimethylpropanoyl)-1H-pyrazol-3-yl)-2-oxo-1,2-dihydropyridin-1-yl]acetate] | < 100
18 | O=C(c1ccccc1)n1nc(-c2cccn(Cc3ccsc3)c2=O)cc1NCc1ccc(Cl)s1 [Cmpd 71, 3-(1-benzoyl-5-[(5-chlorothiophen-2-yl)methyl]amino-1H-pyrazol-3-yl)-1-(thiophen-3-ylmethyl)-1,2-dihydropyridin-2-one] | < 100
19 | O=c1c(-c2cc(NCc3ccc(Cl)s3)[nH]n2)cccn1Cc1cccnn1 [Cmpd 226, 3-(5-[(5-chlorothiophen-2-yl)methyl]amino-1H-pyrazol-3-yl)-1-(pyridazin-3-ylmethyl)-1,2-dihydropyridin-2-one] | 10000 to 100000
20 | COc1ccccc1C(=O)n1nc(-c2cccn(Cc3ccccc3Cl)c2=O)cc1NCc1ccc(Cl)s1 [Cmpd 28, 1-[(2-chlorophenyl)methyl]-3-(5-[(5-chlorothiophen-2-yl)methyl]amino-1-[(2-methoxyphenyl)carbonyl]-1H-pyrazol-3-yl)-1,2-dihydropyridin-2-one] | < 100
21 | O=C(c1cccs1)n1nc(-c2cccn(Cc3ccco3)c2=O)cc1NCc1ccc(Cl)s1 [Cmpd 183, 3-(5-[(5-chlorothiophen-2-yl)methyl]amino-1-[(thiophen-2-yl)carbonyl]-1H-pyrazol-3-yl)-1-(furan-2-ylmethyl)-1,2-dihydropyridin-2-one] | < 100
22 | O=C(c1ccoc1)n1nc(-c2cccn(CCc3ccccc3)c2=O)cc1NCc1ccc(Cl)s1 [Cmpd 172, 3-(5-[(5-chlorothiophen-2-yl)methyl]amino-1-[(furan-3-yl)carbonyl]-1H-pyrazol-3-yl)-1-(2-phenylethyl)-1,2-dihydropyridin-2-one] | < 100
23 | O=C(c1cccs1)n1nc(-c2cccn(Cc3cccs3)c2=O)cc1NCc1ccc(Cl)s1 [Cmpd 190, 3-(5-[(5-chlorothiophen-2-yl)methyl]amino-1-[(thiophen-2-yl)carbonyl]-1H-pyrazol-3-yl)-1-(thiophen-2-ylmethyl)-1,2-dihydropyridin-2-one] | < 100
24 | CC1(C(=O)n2nc(-c3cccn(Cc4ccncc4)c3=O)cc2NCc2ccc(Cl)s2)CCOCC1 [Cmpd 155, 3-(5-[(5-chlorothiophen-2-yl)methyl]amino-1-[(4-methyloxan-4-yl)carbonyl]-1H-pyrazol-3-yl)-1-(pyridin-4-ylmethyl)-1,2-dihydropyridin-2-one] | < 100
25 | O=C(c1ccccc1)n1nc(-c2cccn(Cc3ccccn3)c2=O)cc1NCc1ccc(Cl)s1 [Cmpd 66, 3-(1-benzoyl-5-[(5-chlorothiophen-2-yl)methyl]amino-1H-pyrazol-3-yl)-1-(pyridin-2-ylmethyl)-1,2-dihydropyridin-2-one] | < 100
26 | COc1ccccc1C(=O)n1nc(-c2cccn(Cc3ccncc3)c2=O)cc1NCc1ccc(Cl)s1 [Cmpd 141, 3-(5-[(5-chlorothiophen-2-yl)methyl]amino-1-[(2-methoxyphenyl)carbonyl]-1H-pyrazol-3-yl)-1-(pyridin-4-ylmethyl)-1,2-dihydropyridin-2-one] | < 100
27 | O=c1c(-c2cc(NCc3ccc(Cl)s3)[nH]n2)cccn1Cc1ccc(Cl)s1 [Cmpd 42, 1-[(5-chlorothiophen-2-yl)methyl]-3-(5-[(5-chlorothiophen-2-yl)methyl]amino-1H-pyrazol-3-yl)-1,2-dihydropyridin-2-one] | > 100000
28 | O=C(c1ccccc1)n1nc(-c2cccn(Cc3cccnc3)c2=O)cc1NCc1ccc(Cl)s1 [Cmpd 67, 3-(1-benzoyl-5-[(5-chlorothiophen-2-yl)methyl]amino-1H-pyrazol-3-yl)-1-(pyridin-3-ylmethyl)-1,2-dihydropyridin-2-one] | < 100
29 | O=C(c1ccccc1Cl)n1nc(-c2cccn(Cc3cccs3)c2=O)cc1NCc1ccc(Cl)s1 [Cmpd 250, 3-1-[(2-chlorophenyl)carbonyl]-5-[(5-chlorothiophen-2-yl)methyl]amino-1H-pyrazol-3-yl-1-(thiophen-2-ylmethyl)-1,2-dihydropyridin-2-one] | < 100
30 | O=C(c1ccccc1)n1nc(-c2cccn(Cc3ncccn3)c2=O)cc1NCc1ccc(Cl)s1 [Cmpd 69, 3-(1-benzoyl-5-[(5-chlorothiophen-2-yl)methyl]amino-1H-pyrazol-3-yl)-1-(pyrimidin-2-ylmethyl)-1,2-dihydropyridin-2-one] | < 100

Source: patent publication US9687479B2, “Multisubstituted aromatic compounds as serine protease inhibitors” (VERSEON CORPORATION, priority 2013, dated 2017)
